Measured values taken from the NIST ThermoML archive (doi:10.1007/s10765-009-0566-6).

Assay: refractive index (Na D-line) (dimensionless); mn = molality of the nth substance listed, in mol/kg
Details: 101 kPa, Liquid, Standard Abbe refractometry

CCCCCn1cc[n+](C)c1.[Cl-] [1-methyl-3-pentylimidazolium chloride] + O
refractive index
Details | 298.15 K | 308.15 K | 318.15 K | 328.15 K
m1 = 0.014 | 1.3331 | 1.3318 | 1.3302 | 1.3282
m1 = 0.0263 | 1.3334 | 1.3321 | 1.3305 | 1.3284
m1 = 0.0391 | 1.3338 | 1.3324 | 1.3308 | 1.3288
m1 = 0.0518 | 1.3342 | 1.3328 | 1.3313 | 1.3291
m1 = 0.0634 | 1.3344 | 1.3331 | 1.3316 | 1.3294
m1 = 0.084 | 1.3351 | 1.3339 | 1.3322 | 1.3305
m1 = 0.1007 | 1.3358 | 1.3344 | 1.3327 | 1.3309
m1 = 0.1369 | 1.3367 | 1.3357 | 1.3336 | 1.3316
m1 = 0.1784 | 1.3379 | 1.3367 | 1.3349 | 1.3328
m1 = 0.2198 | 1.3392 | 1.3378 | 1.3359 | 1.3339
m1 = 0.2765 | 1.3408 | 1.3397 | 1.3377 | 1.3356
m1 = 0.3517 | 1.343 | 1.3416 | 1.3397 | 1.3376
m1 = 0.4043 | 1.3443 | 1.343 | 1.3411 | 1.3389
m1 = 0.5014 | 1.347 | 1.3457 | 1.3437 | 1.3419
m1 = 0.5758 | 1.3489 | 1.3475 | 1.3457 | 1.344
m1 = 0.8464 | 1.3558 | 1.3547 | 1.3523 | 1.3505
m1 = 1.002 | 1.3596 | 1.3579 | 1.3557 | 1.3537
m1 = 1.376 | 1.3679 | 1.3658 | 1.3639 | 1.3619
m1 = 1.797 | 1.3764 | 1.3745 | 1.3721 | 1.3697
